According to patent US20260041679A1, “METHOD OF TREATING HYPERTENSION WITH THE ALDOSTERONE SYNTHASE INHIBITOR BAXDROSTAT” (CINCOR PHARMA, INC., priority 2022, published 2026):
Read-outs that look alike come from different tables or passages of the source.

Assays:
[1] = biological target: T1, aldosterone synthase (Homo sapiens, UniProt P19099); experiment: Multiple ascending dose study, pharmacodynamics: plasma aldosterone, cortisol, electrolytes (Example 2); format: in vivo
T1 construct: Pharmacodynamic measurements included plasma aldosterone, cortisol, and electrolytes; endogenous in cells; host or cells: human subjects in vivo (healthy volunteers; resistant hypertension patients)
T1 sequence (P19099 25-503): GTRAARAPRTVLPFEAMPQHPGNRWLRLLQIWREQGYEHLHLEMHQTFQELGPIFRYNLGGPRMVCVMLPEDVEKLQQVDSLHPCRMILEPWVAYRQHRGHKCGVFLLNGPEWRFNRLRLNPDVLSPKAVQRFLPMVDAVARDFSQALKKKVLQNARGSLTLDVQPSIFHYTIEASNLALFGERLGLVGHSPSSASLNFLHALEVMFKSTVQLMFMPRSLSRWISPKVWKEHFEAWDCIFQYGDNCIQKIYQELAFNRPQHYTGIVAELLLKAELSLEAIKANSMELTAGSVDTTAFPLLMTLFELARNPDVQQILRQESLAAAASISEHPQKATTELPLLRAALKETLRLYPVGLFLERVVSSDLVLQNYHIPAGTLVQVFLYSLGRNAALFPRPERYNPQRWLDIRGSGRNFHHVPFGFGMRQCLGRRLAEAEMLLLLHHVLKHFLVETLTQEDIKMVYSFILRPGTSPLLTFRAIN
Protocol: This randomized, double-blind, placebo-controlled phase 1 study evaluated the safety, pharmacokinetics, and pharmacodynamics of multiple ascending doses of baxdrostat in healthy volunteers. Fifty-six subjects were randomized to receive oral baxdrostat (0.5, 1.5, 2.5, or 5.0 mg) or placebo once daily for ten days and were placed on either a low salt or normal salt diet for the duration of the study. In particular, subjects were randomized into 5 cohorts to receive baxdrostat or placebo once daily for 10 days. Cohorts 1 and 2 were placed on a low salt diet to stimulate aldosterone production and were administered 2.5 or 5.0 mg oral baxdrostat, respectively. Cohorts 1 and 2 also underwent an adrenocorticotropic hormone (ACTH) challenge to increase aldosterone and cortisol levels to evaluate the specificity of baxdrostat for targeting aldosterone synthase. Cohorts 3, 4, and 5 were placed on a normal salt diet and were administered 1.5, 2.5, or 0.5 mg oral baxdrostat, respectively. Blood samples were collected prior to and after dosing on days 1 and 10 for measurement of plasma baxdrostat concentrations to characterize single-dose and steady-state pharmacokinetics. Pharmacodynamic measurements included plasma aldosterone, cortisol, and electrolytes. Safety assessments included physical examination, electrocardiograms, orthostatic vital signs, and clinical laboratory evaluations.

[2] = Safety in subjects with varying degrees of renal function (Example 4); format: in vivo, human
Protocol: Safety was assessed throughout the study based on adverse events, physical examinations, ECG, seated and orthostatic vital signs, weight measurements, and clinical laboratory evaluations

[3] = Pharmacokinetics in subjects with moderate hepatic impairment vs normal hepatic function (Example 5); format: in vivo, human; conditions: for CL renal / Cmax / AUC(0-inf) / Tmax: human, oral, 10 mg; for CL renal: plasma and urine, read-out: CLR, geometric mean (% CV) (converted); for CL renal / Cmax / AUC(0-inf) / Tmax / CL/F, geometric mean (% CV): single 10 mg; for Cmax / AUC(0-inf) / Tmax: plasma; for Cmax: read-out: Cmax, geometric mean (% CV); for AUC(0-inf): read-out: AUC(0-inf), geometric mean (% CV); for Tmax: read-out: Tmax, arithmetic mean (SD)
Protocol: (§1) Subjects with moderate hepatic impairment (Child-Pugh Category B, n=10) and healthy controls (n=10) were each given a single 10 mg oral dose of baxdrostat. Subjects were matched by age, sex, body mass index, race, and smoking status. Serial blood and urine samples were collected to determine plasma and urine concentrations of baxdrostat for 7 days postdose. Safety was assessed based on adverse events, clinical laboratory evaluations, vital signs, electrocardiogram and physical examinations.

[4] = Safety in hepatic function study (Example 5); format: in vivo, human
Protocol: as §1

[5] = Study 121: serum electrolytes and eGFR; format: in vivo, human
Excerpt: Aldosterone plays a direct role in the pathogenesis of hypertension via increasing renal absorption of sodium and water while promoting excretion of potassium. There is the potential therefore for an aldosterone synthesis inhibitor to cause the electrolyte abnormalities of hyperkalemia or hyponatremia. Moreover, the decrease in SBP expected with aldosterone inhibitors will reduce blood flow through the afferent arterioles in the kidney, leading to an apparent decline in determination of eGFR. These potential perturbations in kidney physiology were closely monitored throughout the study via the measurement of serum electrolytes and eGFR.

[6] = control eGFR ≥60 mL/min (n = 10)
[7] = moderate to severe renal impairment (n = 11)
[8] = single 10 mg, all renal function groups
[9] = moderate hepatic impairment vs normal hepatic function

## CCC(=O)N[C@@H]1CCCc2c(-c3ccc4c(c3)CCC(=O)N4C)cncc21 [baxdrostat, (R)—N-(4-(1-methyl-2-oxo-1,2,3,4-tetrahydroquinolin-6-yl)-5,6,7,8-tetrahydroisoquinolin-8-yl) propionamide]
[1]; Day 10
  plasma aldosterone, reduction: 51-73%
[1]; doses ≥1.5 mg, regardless of diet
  plasma aldosterone: dose-dependent reduction of plasma aldosterone
[1]; once daily, 10 days
  plasma cortisol: no meaningful impact on plasma cortisol
  plasma sodium levels: mild dose-dependent decreases in plasma sodium levels
  potassium levels: increases in potassium levels
[2]; Total (n = 33)
  Diarrhea, n (%): 1 (3.0) n (%)
  Metabolic encephalopathy, n (%): 1 (3.0) n (%)
  Subjects with any TEAEs, n (%): 2 (6.1) n (%)
  Tremor, n (%): 1 (3.0) n (%)
[2]; [6]
  Diarrhea, n (%): 1 (10.0) n (%)
  Metabolic encephalopathy, n (%): 0 (0.0) n (%)
  Subjects with any TEAEs, n (%): 1 (10.0) n (%)
  Tremor, n (%): 0 (0.0) n (%)
[2]; kidney failure (n = 12)
  Diarrhea, n (%): 0 (0.0) n (%)
  Subjects with any TEAEs, n (%): 1 (8.3) n (%)
[2]; kidney failure (n = 12), considered severe and unrelated to the study drug
  Metabolic encephalopathy, n (%): 1 (8.3) n (%)
[2]; kidney failure (n = 12), unrelated to the study drug
  Tremor, n (%): 1 (8.3) n (%)
[2]; [7]
  Diarrhea, n (%): 0 (0.0) n (%)
  Metabolic encephalopathy, n (%): 0 (0.0) n (%)
  Subjects with any TEAEs, n (%): 0 (0.0) n (%)
  Tremor, n (%): 0 (0.0) n (%)
[2]; [8]
  deaths and drug-related treatment-emergent adverse events: no deaths and only one mild drug-related treatment-emergent adverse event (diarrhea)
  laboratory values, vital signs, physical examinations, ECGs: no clinically meaningful changes
[3]; moderate hepatic impairment
  CL renal: 4.98 mL/min
  AUC(0-inf): 3570 ng·h/mL
  Tmax: 2.15 h
  CL/F, geometric mean (% CV): 2.80 (30.1) L/hr
[3]; normal hepatic function
  CL renal: 6.02 mL/min
  AUC(0-inf): 3780 ng·h/mL
  Tmax: 2.55 h
  CL/F, geometric mean (% CV): 2.64 (24.7) L/hr
[3]; moderate hepatic impairment (n = 10)
  Cmax: 119 ng/mL
[3]; normal hepatic function (n = 10)
  Cmax: 104 ng/mL
[3]; [9]
  AUC(0-inf), ratio of GLSM (90% CI): 0.95 (0.73, 1.23)
  Cmax, ratio of GLSM (90% CI): 1.1 (0.97, 1.32)
[4]; both groups
  clinical laboratory evaluations, vital signs, electrocardiograms, physical examinations: No clinically significant changes
[4]; normal hepatic function group
  TEAE deemed related to baxdrostat: One TEAE of headache with moderate severity
[4]; single 10 mg, both hepatic function groups
  deaths, serious TEAEs, study discontinuations: no deaths, serious treatment-emergent adverse events (TEAE), or study discontinuations
[5]; 0.5 mg
  AEs of renal impairment: no cases
  change in serum potassium from baseline to end of treatment, mean (standard deviation): 0.19 (0.474) mEq/L
  change in serum sodium from baseline to end of treatment, mean (SD): −1.2 (2.73) mEq/L
  patients with mild hyponatremia (serum sodium <130 mEq/L): 1 patients
[5]; 1 mg
  AEs of renal impairment: 3
  change in serum potassium from baseline to end of treatment, mean (standard deviation): 0.36 (0.481) mEq/L
  change in serum sodium from baseline to end of treatment, mean (SD): −1.1 (3.03) mEq/L
  patients with mild hyponatremia (serum sodium <130 mEq/L): 7 patients
[5]; 2 mg
  AEs of renal impairment: 1
  change in serum potassium from baseline to end of treatment, mean: 0.29 mEq/L
  change in serum sodium from baseline to end of treatment, mean: −2.4 mEq/L
  patients with mild hyponatremia (serum sodium <130 mEq/L): 1 patients
[5]; 0.5, 1, 2 mg QD
  mean eGFR: mild dose-dependent decrease in mean eGFR
[5]; 2 highest dose groups
  overall rate of moderate hyperkalemia (potassium>6.0 mEq/L): 2.2%
  patients with moderate hyperkalemia (potassium>6.0 mEq/L): 3 patients
[5]; any baxdrostat dose groups
  moderate hypokalemia (potassium 3.0 to 2.5 mEq/L): no cases
[5]; in vivo
  relationship between dose and serum calcium, serum phosphorus: no apparent relationship
